Test results published in US20220008376A1, “INHIBITORS OF TYPE 3 SECRETION SYSTEM AND ANTIBIOTIC THERAPY” (priority 2018, published 2022).
Like-named read-outs stand apart in the source and are kept apart here.

Experiments:
PscE-PscG heterodimer [1] = target: T1, PscE-PscG heterodimer (Pseudomonas aeruginosa, UniProt P95435); type: binding; parameters: made in house; host or cells: total chemical synthesis (solid phase peptide synthesis and native chemical ligation), no expression host; settings: FP competition with FAM-PscF69-85 for PscE-PscG
Description: Fluorescence polarization (FP) and FP-based competitive binding assays. All fluorescence polarization assays were done using black, low protein binding 96-well plates (Thermo Fisher Scientific) in a total volume of 100 μl per well of 10 mM Tris buffer containing 150 mM NaCl and 1 mM EDTA, pH 7.0, unless indicated otherwise. After a gentle mixing and incubation for 3 h, FP readings were taken at 470 nm (excitation) and 530 nm (emission) wavelengths on a Tecan Infinite M2000 fluorescence plate reader. Nonlinear regression analyses were performed to give rise to Kd and IC50 values as previously described.
For direct binding of PscF to PscG or PscE-PscG, equal volumes of FAM-PscF^69-85 (400 nM) and serially diluted PscG or PscE-PscG (0-64 μM) were mixed. For initial screening, 95 μl of FAM-PscF^69-85-PscE-PscG (100 nM) in the assay buffer was mixed with 5 μl of small molecule inhibitor in DMSO to a final molar concentration of 1, 10, 100, or 1000 μM. 5% DMSO and 6 M GuHCl in the final assay buffer were used as negative and positive controls, respectively. For secondary screening or competitive binding assays, 95 μl of FAM-PscF^69-85-PscE-PscG (100 nM) in the assay buffer was mixed with 5 μl of serially diluted PscF^69-85 or various tanshinone analogs (0-200 μM).
Target sequence in this assay (P95435 1-114): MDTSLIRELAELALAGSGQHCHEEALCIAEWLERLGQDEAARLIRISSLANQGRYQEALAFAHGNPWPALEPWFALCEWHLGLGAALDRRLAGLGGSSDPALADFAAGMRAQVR
Target sequence in this assay (Q9I317 whole entry, further chain): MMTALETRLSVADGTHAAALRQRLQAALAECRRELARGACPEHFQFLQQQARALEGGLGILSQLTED

[2] = tested on: cytotoxicity of PAO1 to murine macrophages (J774A.1); assay: Cytoplasmic lactate dehydrogenase (LDH) release assay, PAO1-infected macrophages; type: cell-based, mouse; settings: for inhibition of Pseudomonas aeruginosa-induced cell lysis (LDH release), words: different concentrations, MOI 8, 5 hours; for EC50: Mus musculus
Excerpt: Cytoplasmic lactate dehydrogenase (LDH) release assay. […] LDH released into supernatant was detected by LDH detection kit (Beyotime, C0017) as instructed by the manufacturer.

[3] = tested on: secretion of ExoS by PAO1; assay: Inhibition of T3SS-mediated effector secretion (ExoS Western blot); type: cell-based, Pseudomonas aeruginosa; settings: PAO1 under low-calcium conditions; for inhibition of ExoS secretion: 100 μM
Description: Inhibition of T3SS-mediated effector secretion. For T3SS induction, PAO1 overnight cultures were diluted to an OD at 600 nm of 0.3 in LB containing 5 mM EGTA and 20 mM MgCl2, in the presence of tanshinone inhibitors ([…]), followed by an incubation with mild agitation of additional 3-4 hours until the cultures reached an OD value of 1.5. NC group were cultured in LB and 2% DMSO, PC group were cultured in LB containing 5 mM EGTA, 20 mM MgCl2 and 2% DMSO. Culture supernatant was collected by centrifugation at 4000 g for 15 min at 4° C. and secreted proteins were concentrated by adding ice-cold trichloroacetic acid to a final concentration of 10% (V/V). Following a 2 hours' incubation on ice, the pellets were washed twice with cold acetone and suspended in an SDS-PAGE sample buffer (with 2-mercaptoethanol) according to the BCA protein assay protocol. Secreted and total proteins (supernatant and pelleted bacteria) were analyzed by immunoblotting with an anti-ExoS antibody (Agrisera, AS05056, at 1:4000 dilution) and corresponding HRP-conjugated secondary antibody. The blots were semi-quantified using ImageJ 1.51 k (from http://imagej.nih.gov/ij). The results were expressed as the mean±SD percentage of secreted ExoS out of total ExoS of three independent experiments.

PscE-PscG heterodimer [4] = target: T1, PscE-PscG heterodimer; assay: 15N-1H HSQC NMR of 15N-PscG-PscE with dHTSN1; type: binding; parameters: inferred from the Ni-NTA purification; made in house; host or cells: PscG: E. coli (15N MOPS medium); PscE: chemical synthesis; settings: molar ratio 1:1:1
Description: PscG was uniformly labeled with ^15N MOPS medium containing 1 g/L ^15NH4Cl as the sole source and BME vitamins (Sigma, USA). Cells were harvested by centrifugation at 6000 g for 30 min, resuspended in a lysis buffer containing 6 M urea, and subjected to a 1-min sonication, followed by two-cycle homogenization at 4° C. The lysates were centrifuged at 20,000 rpm for 30 min, and the supernatant was loaded onto a 10 ml Ni-NTA agarose column (Qiagen, USA). The elute was concentrated to 10-12 ml under denaturation conditions, followed by purification on a Sep-Pak C18 column. Peak fractions containing ^15N-PscG were lyophilized. […] The mixtures were dialyzed against the same buffer overnight and then concentrated to ˜300 μl.
All NMR samples were prepared in an NMR buffer containing 20 mM sodium phosphate (pH 7.4), 100 mM NaCl, 0.1% NaN3, 10% D2O and 2 mM DTT. The final protein concentrations were approximately 26 μM and 47.8 μM for ^15N-PscG-PscE and ^15N-PscG-PscE-dHTSN1 complexes, respectively. All NMR spectra were collected at 25° C. on a Bruker Avance 700 MHz spectrometer equipped with a triple-resonance pulse-field gradient probe. ^15N-^1H HSQC NMR spectra were recorded in the echo-antiecho mode for quadrature detection. All datasets were acquired with 2048 complex points in t2 and 256 complex points in t1.
Target sequence in this assay (Q9I317 whole entry): as the sequence (Q9I317 whole entry, further chain) above
Target sequence in this assay (P95435 whole entry): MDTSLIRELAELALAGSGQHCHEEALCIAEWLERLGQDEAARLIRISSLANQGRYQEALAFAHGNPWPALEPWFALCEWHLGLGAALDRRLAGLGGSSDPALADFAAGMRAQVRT

PAO1 [5] = assay: Bacterial burden in bronchoalveolar lavage and lung histopathology, PAO1-infected mice; type: in vivo, C57BL/6J mice
Excerpt: (§1) Animal studies. 6-week-old female C57BL/6J mice used in this study were acquired from the Experimental Animal Center of Xian Jiaotong University. All the animals were maintained in animal care facilities in the School of Life Science and Technology, and provided with food and water ad libitum. The animal studies were approved by the Committee on Animal Research and Ethics, Xi'an Jiaotong University.
C57BL/6J mice were lightly anesthetized with inhaled sevoflurane and infected by intranasal instillation of PAO1 (1×10^7 CFU in 20 μL PBS) after lightly anesthetized with inhaled sevoflurane. Tanshinone inhibitors were administrated to the animals along with bacterial inoculation (100 μM, 1% DMSO). PBS containing 1% DMSO was used as mock treatment. 18 hours after infection, animals were sacrificed and bronchoalveolar lavages were collected and plated to obtain the bacterial counts in the lavages. The lungs of sacrificed mice were then isolated and fixed in 10% buffered formalin, paraffin embedded and hematoxylin-eosin-stained for histopathological examination. Pathological scores of the tissues were assigned according to the degree of inflammation.

PAO1 [6] = assay: Survival study, murine model of acute pneumonia; type: in vivo, C57BL/6J mice; settings: for mice died of infection within 48 h, first treatment 8 h after challenge: mock-treated 85%
Description: as §1
For survival study, tanshinone inhibitors (100 μM, 1% DMSO, in 10 μL PBS) were administrated to the infected animals intranasally at the time of infection, or 8 h after infection, and every 12 hours till the death of the animal or the end of the experiment. PBS containing 1% DMSO was used as mock treatment.

[7] = tested on: intracellular PAO1 in J774A.1 cells; settings: different concentrations, gentamicin at 2 h post infection
Description: Quantification of bacterial internalization. 5×10^4 J774a cells were seeded into each well of a 24-well plate and grown for 24 h before infection. One hour before the infection, cell culture medium was changed into serum-free medium and PAO-1 from mid-exponential phase was added to the cells at a multiplicity of infection (MOI) of 8. In the presence of different concentration of tanshinone inhibitors (0-100 μM compound, 2% DMSO), bacteria/cells mixtures were incubated for 2 hours and washed, then treated with gentamicin-containing (50 μg/ml) medium for another 2 hours before being lysed for plating. Internalized bacteria were defined as the total number of intracellular bacteria in cells (extracellular bacteria were killed by gentamicin, a cell-impermeable antibiotic). Results were normalized against the intracellular bacteria number by PAO-1-infected cells with mock treatment (2% DMSO). Average results of three independent experiments are shown as mean±SD.

[8] = target: T2, PscF^69-85-PscE-PscG complex (Pseudomonas aeruginosa, UniProt P95435); assay: CD spectroscopy and thermal denaturation of the heterotrimer; settings: for effect on helicity of the heterotrimeric complex: CD, 20 μM heterotrimer, 25° C., 10 mM phosphate buffer, pH 7.4
T2 construct: made in house; host or cells: total chemical synthesis (solid phase peptide synthesis and native chemical ligation), no expression host
Description: Circular dichroism (CD) spectroscopy and thermal denaturation. […] Protein thermal denaturation was carried out in PBS using a JASCO circular dichroism spectrometer equipped with temperature controller. […] Under constant stirring, measurement was taken at one-degree interval between 25° C. and 90° C., at a heating rate of 1° C. per minute. After each 1-minute heating, the solution in the cuvette was waited for 20 s before signals were detected over a 16 s period. Heating and data acquisition were fully automated with the control software provided by JASCO. Data processing was performed as previously described.

[9] = J774.A1, read-out: EC50, LDH release normalized against PAO1 ΔpscC
[10] = J774.A1, normalized against mock-treated PAO1-infected cells, read-out: EC50, inhibition of PAO1 cytotoxicity to macrophages (LDH release)
[11] = first intranasal dose 8 h after PAO1

T2 sequence (Q9I317 whole entry): as the sequence (Q9I317 whole entry, further chain) above
T2 sequence (P95435 2-115): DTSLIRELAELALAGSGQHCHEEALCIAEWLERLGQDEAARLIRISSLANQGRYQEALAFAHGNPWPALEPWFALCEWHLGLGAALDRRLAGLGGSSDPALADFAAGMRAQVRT

Cc1coc2c1C(=O)C(=O)c1c-2ccc2c1CCCC2(C)C [tanshinone 2A]
activity in FP competition assay (PscE-PscG heterodimer [1]): inactive

C[C@H]1COC2=C1C(=O)C(=O)c1c2ccc2c1CCCC2(C)C [crpTSN, cryptotanshinone, reference compound]
inhibition of Pseudomonas aeruginosa-induced cell lysis (LDH release), words [2]: inactive
inhibition of ExoS secretion [3]: no inhibitory activity
activity in FP competition assay (PscE-PscG heterodimer [1]): inactive

Cc1cccc2c3c(ccc12)C1=C(C(=O)C3=O)[C@@H](C)CO1 [dHTSN1, dihydrotanshinone 1]
interaction with 15N-PscG-PscE complex by NMR (PscE-PscG heterodimer [4]): relatively strong interactions
EC50 [2, 9]: ~3 µM
EC50 [2, 10]: 25 µM
inhibition of Pseudomonas aeruginosa-induced cell lysis (LDH release), words [2]: inhibited Pseudomonas aeruginosa-induced cell lysis in a dose dependent manner
lung inflammation, H&E staining (PAO1 [5]; 18 h post infection): significantly reduced inflammation
infected mice survived beyond 96 h, first treatment 8 h after challenge (PAO1 [6]; [11]): 80%
mice died of infection within 48 h, first treatment 8 h after challenge (PAO1 [6]; [11]): 5%
inhibition of ExoS secretion [3]: more active than TSN1

Cc1cccc2c3c(ccc12)C(=O)C1=C(OC[C@H]1C)C3=O [dHTSN]
EC50 [2, 9]: ~3 µM
EC50 [2, 10]: 12.5 µM
inhibition of Pseudomonas aeruginosa-induced cell lysis (LDH release), words [2]: inhibited Pseudomonas aeruginosa-induced cell lysis in a dose dependent manner
mice died of infection within 48 h, first treatment 8 h after challenge (PAO1 [6]; [11]): 20%
inhibition of ExoS secretion [3]: more active than TSN1

CC(Oc1ccc(Cl)cc1Cl)C(=O)NCc1ccc2c(c1)OCO2 (stereo not shown) [MBX-1641, reference compound]
bacterial burden in bronchoalveolar lavage (PAO1 [5]; single dose 100 μM at time of infection, sampled 18 h post infection): reduced bacterial burden
inhibition of intracellular bacterial survival / proliferation of PAO1 in macrophages [7]: inhibited
inhibition of ExoS secretion (MBX-1641) ([3]; 6.25 μM): inhibited
activity in FP competition assay (PscE-PscG heterodimer [1]): no effect

Cc1coc2c1C(=O)C(=O)c1c-2ccc2c(C)cccc12 [TSN1, tanshinone 1]
inhibition of Pseudomonas aeruginosa-induced cell lysis (LDH release), words [2]: inhibited Pseudomonas aeruginosa-induced cell lysis in a dose dependent manner
effect on helicity of the heterotrimeric complex [8]: reduced
effect on helicity of the heterotrimeric complex ([8]; listed as tanshinone 1): progressively decreases
effect on thermal stability of the heterotrimeric complex ([8]; added to preformed heterotrimer PscE-PscG-PscF^69-85): reduced
Tm of PscF^69-85-PscE-PscG complex in presence of compound ([8]; complex 20 μM in PBS, 300 μM tanshinone 1, CD at 222 nm, 54.8 in absence): 52.3 °C
protection of infected mice, treatment from time of infection (PAO1 [6]; 100 μM intranasal at time of infection and every 12 h): significantly protective
mice died of infection within 48 h, first treatment 8 h after challenge (PAO1 [6]; [11]): 40%
